Reference: patent US4362743A, “Antibacterial monic acid esters” (Beecham Group Limited, priority 1980, dated 1982)
Converted amounts (≈) assume the structure as drawn. Read-outs that look alike come from different tables or passages of the source.

Key:
Past. haemolytica PA5 = assay: Veterinary bacteria MIC; format: cell-based; details: Mannheimia haemolytica
Protocol: (§1) The values were determined using a two fold serial dilutions in Diagnostic Sensitivity Test Agar with an inoculum of 10^4 organisms and incubation for 18 hours at 37° C.

Strep. uberis SPU1 = assay: Veterinary bacteria MIC; format: cell-based; details: Streptococcus uberis, Diagnostic Sensitivity Test Agar, 18 hours 37° C.
Protocol: as §1

[1] = system: Corynebacterium pyogenes CY1; assay: Veterinary bacteria MIC; format: cell-based; details: Trueperella pyogenes, CY1, 18 h
Protocol: as §1

Bord. bronchiseptica B08 = assay: Veterinary bacteria MIC; format: cell-based; details: Bordetella bronchiseptica
Protocol: as §1

Strep. dysgalactiae SPD1 = assay: Veterinary bacteria MIC; format: cell-based; details: Streptococcus dysgalactiae, Diagnostic Sensitivity Test Agar, 18 hours 37° C.
Protocol: as §1

Past. multocida PA2 = assay: Veterinary bacteria MIC; format: cell-based; details: Pasteurella multocida; Past. multocida PA2; Diagnostic Sensitivity Test Agar, 18 hours 37° C.; read-out: M.I.C.
Protocol: as §1

E. coli El = assay: Veterinary bacteria MIC; format: cell-based; details: Escherichia coli, 18 h
Protocol: as §1

E. coli NCTC 10418 = assay: Veterinary bacteria MIC; format: cell-based; details: Escherichia coli, NCTC10418, 18 h
Protocol: as §1

[2] = system: Staph. aureus B4 (pen. resistant); assay: Veterinary bacteria MIC; format: cell-based; details: Staphylococcus aureus, Diagnostic Sensitivity Test Agar, 18 hours 37° C.
Protocol: as §1

Strep. agalactiae SPA1 = assay: Veterinary bacteria MIC; format: cell-based; details: Streptococcus agalactiae, Diagnostic Sensitivity Test Agar, 18 hours 37° C.
Protocol: as §1

[3] = system: Erysipelothrix rhusiopathiae NCTC 8163; assay: Veterinary bacteria MIC; format: cell-based; details: Erysipelothrix rhusiopathiae, NCTC8163, 18 h
Protocol: as §1

Bord. brochiasetpica B09 = assay: Veterinary bacteria MIC; format: cell-based; details: Diagnostic Sensitivity Test Agar, 18 hours 37° C.
Protocol: as §1

[4] = system: Strep. suis (Group D) SPS11; assay: Veterinary bacteria MIC; format: cell-based; details: Streptococcus suis
Protocol: as §1

S. dublin S7 = assay: Veterinary bacteria MIC; format: cell-based; details: Salmonella enterica, S7, 18 h
Protocol: as §1

Past. multocida PA1 = assay: Veterinary bacteria MIC; format: cell-based; details: Pasteurella multocida, Diagnostic Sensitivity Test Agar, 18 hours 37° C.
Protocol: as §1

Staph. aureus Oxford = assay: Veterinary bacteria MIC; format: cell-based; details: Staphylococcus aureus, Diagnostic Sensitivity Test Agar, 18 hours 37° C.
Protocol: as §1

[5] = system: Staph. aureus 152 (pen. sens); assay: Veterinary bacteria MIC; format: cell-based; details: Staphylococcus aureus, Diagnostic Sensitivity Test Agar, 18 hours 37° C.
Protocol: as §1

S. typhimurium S18 = assay: Veterinary bacteria MIC; format: cell-based; details: Salmonella enterica, TYPHIMURIUM, 18 h
Protocol: as §1

Sarcina lutea 8340 = assay: Human bacteria MIC; format: cell-based; details: Micrococcus luteus, 8340, 18 h
Protocol: (§2) The values were determined by serial dilutions in nutrient agar with 5% chocolated horse blood after incubations for 18 hours at 37° C.

[6] = system: Haemophilus influenzae Wy21; assay: Human bacteria MIC; format: cell-based
Protocol: as §2

M. suipneumoniae UCD 1 = assay: Anti-mycoplasmal activity in vitro MIC; format: cell-based; details: Mesomycoplasma hyopneumoniae, UCD1, 144 h
M. pneumoniae ATCC 15492 = assay: Anti-mycoplasmal activity in vitro MIC; format: cell-based; details: Mycoplasmoides pneumoniae, ATCC15492, 144 h
M. gallisepticum S6 = assay: Anti-mycoplasmal activity in vitro MIC; format: cell-based; details: Mycoplasmoides gallisepticum
[7] = system: M. hyosynoviae ATCC 25591; assay: Anti-mycoplasmal activity in vitro MIC; format: cell-based; details: 144 h
M. hyorhinis ATCC 23234 = assay: Anti-mycoplasmal activity in vitro MIC; format: cell-based; details: Mesomycoplasma hyorhinis, ATCC23234, 144 h
[8] = Serum binding by ultrafiltration; format: in vitro ADME; details: pig, porcine serum, 8 mcg/ml, read-out: % bound to pig serum (converted)
Protocol: Serum binding was assessed by ultrafiltration of porcine serum containing compounds at 8 mcg/ml, and through an Amicon CF50A ultrafiltration cone. Separation of ultrafiltrate was achieved by centrifugation. Unbound concentrations of compound were measured in the ultrafiltrate by microbiological assay (B. subtilis ATCC 6633) against standards prepared in saline.

M. suipneumoniae JF 435 = assay: Anti-mycoplasmal activity in vitro MIC; format: cell-based; details: Mesomycoplasma hyopneumoniae, JF435, 144 h
[9] = system: M. suipneumoniae PW/C/210; assay: Anti-mycoplasmal activity in vitro MIC; format: cell-based; details: Mesomycoplasma hyopneumoniae, 144 h; M. suipneumoniae PW/C/210; Friis broth, 0.9% agarose, 6 days 37° C.; read-out: M.I.C.
M. suipneumoniae MS16 = assay: Anti-mycoplasmal activity in vitro MIC; format: cell-based; details: Mesomycoplasma hyopneumoniae
[10] = system: M. suipneumoniae J2206/183b; assay: Anti-mycoplasmal activity in vitro MIC; format: cell-based; details: Mesomycoplasma hyopneumoniae, J2206/183B, 144 h

Compound	MIC (Strep. uberis SPU1) [µg/mL]	MIC [1] [µg/mL]	MIC (Strep. dysgalactiae SPD1) [µg/mL]	MIC (Past. multocida PA2) [µg/mL]	MIC (E. coli El) [µg/mL]	MIC (E. coli NCTC 10418) [µg/mL]	MIC [2] [µg/mL]	MIC (Strep. agalactiae SPA1) [µg/mL]	MIC [3] [µg/mL]	MIC (Bord. brochiasetpica B09) [µg/mL]	MIC (S. dublin S7) [µg/mL]	MIC (Past. multocida PA1) [µg/mL]	MIC (Staph. aureus Oxford) [µg/mL]	MIC [5] [µg/mL]	MIC (S. typhimurium S18) [µg/mL]	MIC (Sarcina lutea 8340) [µg/mL]	MIC (M. suipneumoniae UCD 1) [µg/mL]	MIC [7] [µg/mL]	MIC (M. hyorhinis ATCC 23234) [µg/mL]	MIC [9] [µg/mL]	also measured
C/C(=C\C(=O)OCCCCCC=NN(C)C)C[C@@H]1OC[C@H](C[C@@H]2O[C@H]2[C@@H](C)[C@H](C)O)[C@@H](O)[C@H]1O [Example 6, 6-Dimethylhydrazonohexyl monate A]	0.312 (≈ 0.644 µM)	> 80	0.07 (≈ 0.144 µM)	0.312 (≈ 0.644 µM)	> 80	> 80	0.07 (≈ 0.144 µM)	1.25 (≈ 2.58 µM)	80 (≈ 165 µM)	2.5 (≈ 5.16 µM)	> 80	2.5 (≈ 5.16 µM)	0.07 (≈ 0.144 µM)	0.07 (≈ 0.144 µM)	> 80	> 100	1 (≈ 2.06 µM)	0.1 (≈ 0.206 µM)	0.25 (≈ 0.516 µM)	0.5 (≈ 1.03 µM)	MIC (Past. haemolytica PA5; Past. haemolytica PA5, Diagnostic Sensitivity Test Agar, 18 hours 37° C., read-out: M.I.C.): 10 µg/mL (≈ 20.6 µM); MIC (Bord. bronchiseptica B08; B08, 18 h): 5 µg/mL (≈ 10.3 µM); MIC ([4]; 18 h): 20 µg/mL (≈ 41.3 µM); MIC ([6]; Haemophilus influenzae, WY21, 18 h): 0.5 µg/mL (≈ 1.03 µM); MIC (M. pneumoniae ATCC 15492): 2.5 µg/mL (≈ 5.16 µM); MIC (M. gallisepticum S6; S6, 144 h): 5 µg/mL (≈ 10.3 µM); fraction unbound [8]: 0.239; MIC (M. suipneumoniae JF 435; M. suipneumoniae JF 435, Friis broth, 0.9% agarose, 6 days 37° C., read-out: M.I.C.): 0.5 µg/mL (≈ 1.03 µM); MIC (M. suipneumoniae MS16; MS16, 144 h): 0.25 µg/mL (≈ 0.516 µM); MIC [10]: 1 µg/mL (≈ 2.06 µM)
C/C(=C\C(=O)OCc1ccc(C=NO)o1)C[C@@H]1OC[C@H](C[C@@H]2O[C@H]2[C@@H](C)[C@H](C)O)[C@@H](O)[C@H]1O [Example 7, 5-Hydroxyiminomethylfurfuryl monate A]	0.625 (≈ 1.34 µM)	> 80	0.625 (≈ 1.34 µM)	0.625 (≈ 1.34 µM)	> 80	> 80	1.25 (≈ 2.67 µM)	1.25 (≈ 2.67 µM)	> 80	2.5 (≈ 5.35 µM)	> 80	0.625 (≈ 1.34 µM)	1.25 (≈ 2.67 µM)	1.25 (≈ 2.67 µM)	> 80	> 100	1 (≈ 2.14 µM)	0.25 (≈ 0.535 µM)	0.5 (≈ 1.07 µM)	0.5 (≈ 1.07 µM)	MIC (Past. haemolytica PA5; PA5, 18 h): 5 µg/mL (≈ 10.7 µM); MIC (Bord. bronchiseptica B08; Bord. bronchiseptica B08, Diagnostic Sensitivity Test Agar, 18 hours 37° C., read-out: M.I.C.): > 80 µg/mL; MIC ([4]; Strep. suis (Group D) SPS11, Diagnostic Sensitivity Test Agar, 18 hours 37° C., read-out: M.I.C.): 20 µg/mL (≈ 42.8 µM); MIC ([6]; Haemophilus influenzae Wy21, nutrient agar, 5% chocolated horse blood, 18 hours 37° C., read-out: M.I.C.): 0.25 µg/mL (≈ 0.535 µM); MIC (M. gallisepticum S6; 144 h, M. gallisepticum S6, Friis broth, 0.9% agarose, 6 days 37° C., read-out: M.I.C.): 5 µg/mL (≈ 10.7 µM); MIC (M. suipneumoniae JF 435): 1 µg/mL (≈ 2.14 µM); MIC (M. suipneumoniae MS16; 144 h, M. suipneumoniae MS16, Friis broth, 0.9% agarose, 6 days 37° C., read-out: M.I.C.): 0.5 µg/mL (≈ 1.07 µM); MIC [10]: 1 µg/mL (≈ 2.14 µM)
